Test results as given in patent publication US9815863B2, “Hydrogen bond forming fluoro ketolides for treating diseases” (priority 2010, dated 2017).
In brackets after ≈: the same amount, converted by molar mass.

Assays:
[1] = tested on: Streptococcus pyogenes Tel^R, Mac^R; assay: MIC against streptococci clinical isolates (Table 3); assay type: cell-based; conditions: Streptococcus pyogenes
[2] = tested on: bacterial protein synthesis (E. coli S30 extract); assay: E. coli cell-free transcription-translation (TnT) S30 system, firefly luciferase synthesis; conditions: read-out: IC50 of inhibition of firefly luciferase synthesis, ribosomes 600 nM
[3] = tested on: E. coli ribosomes (23S rRNA); assay: RNA footprinting (ribosome chemical probing), wild-type E. coli ribosomes; assay type: binding; conditions: 100 μM antibiotic
Description: (§1) Ribosome chemical probing. rRNA probing was done following standard protocols (Merryman, C., and H. F. Noller. 1998. Footprinting and modification-interference analysis of binding sites on RNA, p. 237-253. In C. W. J. Smith (ed.), RNA:Protein Interactions, A Practical Approach. Oxford University Press, Oxford), with minor modifications. Briefly, 200 nM ribosomes were incubated with 100 μM antibiotic in 50 μL of buffer B (80 mM HEPES-KOH [pH 7.8], 20 mM MgCl2, 100 mM NH4Cl, 1.5 mM dithiothreitol) for 10 min at 37° C., followed by 10 min at 20° C. Modifying reagents (dimethyl sulfate [DMS], kethoxal, or 1-cyclohexyl-3-(2-morpholinoethyl)carbodiimide metho p-toluene sulfonate [CMCT]) were added and the modification reaction was carried out for 10 min at 37° C. After quenching the reaction and ethanol precipitation, rRNA was extracted and the distribution of modified nucleotides was assessed by primer extension.
(§2) Interactions of CEM-101 with wild-type E. coli and S. aureus ribosomes in solution. […] 1987. Chloramphenicol, erythromycin, carbomycin and vernamycin B protect overlapping sites in the peptidyl transferase region of 23S ribosomal RNA. Biochimie 69:879-884). Also included in this study was a C3-cladinose cousin of CEM-101, CEM-103, which lacks the C2-linked fluorine atom.

[4] = tested on: Streptococcus pneumoniae Pen^S, Tel^S, Mac^S; assay: MIC against streptococci clinical isolates (Table 3); assay type: cell-based; conditions: Streptococcus pneumoniae, 10 strains
[5] = tested on: eukaryotic ribosome (rabbit reticulocyte lysate); assay: Rabbit reticulocyte cell-free translation system, luciferase synthesis; assay type: biochemical; conditions: concentrations up to 50 μM
Description: The rabbit reticulocyte cell-free translation system (Promega, Cat. No. L4540) was used to assay the effect of the drugs on activity of the eukaryotic ribosome. […] Polyadenylated luciferase mRNA (Promega, Cat. No. L4561) was denatured before use by incubating the RNA at 65° C. for 3 min and then placed on ice. Translation mix (2 μL) was mixed with the rabbit reticulocyte lysate to start the reaction. The translation mix contained 0.3 μL of denatured luciferase mRNA (0.3 μg), 0.2 μL of 1 mM amino acid mixture, 0.2 μL of ribonuclease inhibitor (8U, Roche, Cat. No. 03 335 399001), 0.4 μL of 2.5 M potassium chloride, and 0.9 μL of water. Reactions were incubated at 30° C. for 30 min and then placed on ice.

E. coli ribosome = assay: Competition binding with [14C]erythromycin, E. coli ribosome
Description: (§3) Competition binding studies. Binding of erythromycin to E. coli and S. aureus ribosomes and competition experiments were done by size-exclusion chromatography using Bio-Gel P30 spin columns as described in Xiong, L., Y. Korkhin, and A. S. Mankin. 2005. Binding site of the bridged macrolides in the Escherichia coli ribosome. Antimicrob. Agents Chemother. 49:281-288.
(§4) For competition binding experiments, ribosomes (100 nM) were preincubated with 100 nM [^14C]erythromycin (48.8 mCi/mmol; PerkinElmer) in 160 μL of buffer A at 37° C. for 15 min, then at 20° C. for 10 min. Competing antibiotics were added at varying concentrations, and the binding mixture was incubated at 20° C. for 100 min. The reactions were loaded onto the spin columns and the amount of ribosome-associated radioactivity was measured as described above. Binding data were analyzed using Prism software (GraphPad). Cell free transcription-translation assays.

[6] = tested on: Streptococcus pyogenes Tel^S, Mac^S; assay: MIC against streptococci clinical isolates (Table 3); assay type: cell-based; conditions: Streptococcus pyogenes, 10 strains
S. aureus 70S ribosomes = assay: Saturation (direct) binding of radiolabeled drug to S. aureus wild-type ribosomes, spin-column
Description: Ribosomes were prepared from E. coli, strain MRE 600, S. aureus strain ATCC 29212, or S. aureus strain N315 by standard protocols (Spedding™, G. 1990. Isolation and analysis of ribosomes from prokaryotes, eukaryotes, and organelles, p. 1-29. In G. Spedding (ed.), Ribosomes and protein synthesis, a practical approach. Oxford University Press, Oxford, United Kingdom; Adams, P. D., P. V. Afonine, G. Bunkoczi, V. B. Chen, I. W. Davis, N. Echols, J. J. Headd, L. W. Hung, G. J. Kapral, R. W. Grosse-Kunstleve, A. J. McCoy, N. W. Moriarty, R. Oeffner, R. J. Read, D. C. Richardson, J. S. Richardson, T. C. Terwilliger, and P. H. Zwart. 2010. PHENIX: a comprehensive Python-based system for macromolecular structure solution. Acta Crystallogr. D. Biol. Crystallogr. 66:213-221).
Competition binding studies. […]
Direct antibiotic binding experiments were done by incubating ribosomes at a 100 nM concentration with varying concentrations of radiolabeled drug in a total volume of 160 μL in buffer A (20 mM Tris-HCl [pH 7.5], 10 mM MgCl2, 150 mM NH4Cl, 6 mM 2-mercaptoethanol) at 37° C. for 15 min, then at 20° C. for 10 min. […] Radioactivity was measured in a scintillation counter and used to calculate the amount of the radiolabeled drug bound to ribosomes.

S. aureus ribosome = assay: Competition binding with [14C]erythromycin, S. aureus ribosome
Description: as §3, §4

[7] = tested on: S. aureus ribosomes (23S rRNA); assay: RNA footprinting (ribosome chemical probing), wild-type S. aureus ribosomes; assay type: binding; conditions: 100 μM antibiotic
Description: as §1, §2

[8] = tested on: Streptococcus pneumoniae Pen^R, Tel^1/^R, Mac^R; assay: MIC against streptococci clinical isolates (Table 3); assay type: cell-based; conditions: Streptococcus pneumoniae, S. pneumoniae Pen^R, 12 strains, constitutive ermB

With `CC[C@H]1OC(=O)[C@@](C)(F)C(=O)[C@H](C)[C@@H](O[C@@H]2O[C@H](C)C[C@H](N(C)C)[C@H]2O)[C@](C)(OC)C[C@@H](C)C(=O)[C@H](C)[C@H]2N(CCCCn3cc(-c4cccc(N)c4)nn3)C(=O)O[C@]12C` [CEM-101] the MIC50 [1] was 0.125 µg/mL (≈ 0.148 µM), the MIC90 ([1]; S. pyogenes Tel^R, Mac^R, 9 strains (8 ermB, 1 ermA, constitutive), read-out: MIC90) was 0.25 µg/mL (≈ 0.296 µM) and the IC50 [2] was 1100 nM. For the same molecule, the “Protection of A752 from DMS modification” value ([3]; E. coli ribosomes) was “strongly protects”, the “Protection of A2058 and A2059 in domain V of 23S rRNA from modification with DMS” value ([3]; E. coli wild-type ribosomes) was “protect” and the MIC50 ([4]; read-out: MIC50) was 0.03 µg/mL (≈ 0.0355 µM). The MIC90 ([4]; read-out: MIC90) was 0.03 µg/mL (≈ 0.0355 µM), the “Effect on the synthesis of luciferase” value [5] was “no effect” and the Kd (E. coli ribosome; E. coli ribosome, resulting from competition IC50) was 62 ± 3 nM. The IC50 (E. coli ribosome; competition with 100 nM [14C]erythromycin, 100 nM E. coli ribosomes, read-out: IC50 of displacement of erythromycin) was 155 ± 8 nM, the MIC50 ([6]; read-out: MIC50) was 0.03 µg/mL (≈ 0.0355 µM) and the MIC90 ([6]; read-out: MIC90) was 0.03 µg/mL (≈ 0.0355 µM). It also gave a Kd (S. aureus 70S ribosomes) of 50 ± 13 nM, a Kd (S. aureus ribosome; S. aureus ribosome, resulting from competition IC50) of 12 ± 1 nM and an IC50 (S. aureus ribosome; competition with 100 nM [14C]erythromycin, 100 nM S. aureus ribosomes, read-out: IC50 of displacement of erythromycin) of 117 ± 3 nM. The “Protection of A752 from DMS modification” value ([7]; S. aureus ribosomes) was “strongly protects”, the “Protection of A2058 and A2059 in domain V of 23S rRNA from modification with DMS” value ([7]; S. aureus wild-type ribosomes) was “protect” and the MIC50 ([8]; read-out: MIC50) was 0.5 µg/mL (≈ 0.592 µM). It also gave an MIC90 ([8]; read-out: MIC90) of 0.5 µg/mL (≈ 0.592 µM).
